In patent publication US20250179066A1, “ZWITTERIONIC ANTIBACTERIAL COMPOUNDS” (Hoffmann-La Roche Inc., priority 2022, published 2025) one finds IC90 data, which are given here for five molecules.

Where a name gives a salt, the structure may show the parent alone.

The assay relates to Acinetobacter baumannii ATCC17961. The assay is described as follows: Antimicrobial susceptibility testing: 90% growth inhibitory concentration (IC90) determination. Format: cell-based. The conditions noted are these: Acinetobacter baumannii, ATCC17961, 16 h, 90% growth inhibitory concentration against Acinetobacter baumannii ATCC17961, Iso-Sensitest broth, OD 600 nm over 16 h; read-out: ATCC 17961 IC90. In short, it runs like this:
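OD600 monitored each minute over 16 h at 35±2° C for bacteria (~5×10^5 CFU/mL final) in Iso-Sensitest medium with 10-point twofold compound series (e.g. 10-0.0195 μM final). Concentration giving 90% growth inhibition in log phase reported as IC90.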
One may read the IC90 as the point of the concentration-response curve where the effect stands at 90%. As for `Cn1c(-c2cn(-c3ccc(N)cc3F)nc2C(F)(F)F)cnc1C(=O)Nc1ccc(C(=O)N2CCC(C(=O)N3CC[N+](CCCN)(CC(=O)O)CC3)CC2)c(Cl)c1` [Example 135, 2-[4-[1-[4-[[5-[1-(4-amino-2-fluoro-phenyl)-3-(trifluoromethyl)pyrazol-4-yl]-1-methyl-imidazole-2-carbonyl]amino]-2-chloro-benzoyl]isonipecotoyl]-1-(3-aminopropyl)piperazin-1-ium-1-yl]acetic acid. 1:1 2,2,2-trifluoroacetate], the IC90 was found to be 393 nM.
The value for `Cn1c(-c2cn(-c3ccc4[nH]c(CCCO)cc4n3)nc2C(F)(F)F)cnc1C(=O)Nc1ccc(C(=O)N2CCN(C(=O)C3CC[N+](CCCN)(CC(=O)O)CC3)CC2)c(Cl)c1` (stereo not drawn) [Example 98, cis-2-[1-(3-aminopropyl)-4-[4-[2-chloro-4-[[5-[1-[2-(3-hydroxypropyl)-1H-pyrrolo[3,2-b]pyridin-5-yl]-3-(trifluoromethyl)pyrazol-4-yl]-1-methyl-imidazole-2-carbonyl]amino]benzoyl]piperazine-1-carbonyl]piperidin-1-ium-1-yl]acetic acid;chloride] was 387 nM.
Next, `CNc1cc(-n2cc(-c3cnc(C(=O)Nc4ccc(C(=O)N5CCN(C(=O)C6CC[N+](CC(=O)O)(CC7CNC7)CC6)CC5)c(Cl)c4)n3C)c(C(F)(F)F)n2)ccn1` (centres unmarked) [Example 88, 2-[1-(azetidin-3-ylmethyl)-4-[4-[2-chloro-4-[[1-methyl-5-[1-[2-(methylamino)-4-pyridyl]-3-(trifluoromethyl)pyrazol-4-yl]imidazole-2-carbonyl]amino]benzoyl]piperazine-1-carbonyl]piperidin-1-ium-1-yl]acetic acid. 1:1 2,2,2-trifluoroacetate]: 1410 nM; `Cn1c(-c2cn(-c3ccc4[nH]ccc4n3)nc2C(F)(F)F)cnc1C(=O)Nc1ccc(C(=O)N2CCN(C(=O)[C@H]3CC[N@+](CC(=O)O)(CC4CNC4)CC3)CC2)c(F)c1` [Example 133, cis-2-[1-(azetidin-3-ylmethyl)-4-[4-[2-fluoro-4-[[1-methyl-5-[1-(1H-pyrrolo[3,2-b]pyridin-5-yl)-3-(trifluoromethyl)pyrazol-4-yl]imidazole-2-carbonyl]amino]benzoyl]piperazine-1-carbonyl]piperidin-1-ium-1-yl]acetic acid. 1:1 2,2,2-trifluoroacetate]: 146 nM; `Cn1c(-c2cn(-c3ccc(Nc4ccccn4)cn3)nc2C(F)(F)F)cnc1C(=O)Nc1ccc(C(=O)N2CCN(C(=O)C3CC[N+](CC(=O)O)(CC4CNC4)CC3)CC2)c(Cl)c1` (centres unmarked) [Example 41, 2-[1-(azetidin-3-ylmethyl)-4-[4-[2-chloro-4-[[1-methyl-5-[1-[5-(2-pyridylamino)-2-pyridyl]-3-(trifluoromethyl)pyrazol-4-yl]imidazole-2-carbonyl]amino]benzoyl]piperazine-1-carbonyl]piperidin-1-ium-1-yl]acetic acid. 1:1 formate]: 440 nM.
